Experimental data from publication PMC11955521, “A GTP-driven central carbon metabolism in the cellulolytic bacterium Ruminiclostridium cellulolyticum” (Communications Biology, 2025).

Target: T1, Pyruvate kinase (PK) (Ruminiclostridium cellulolyticum, UniProt B8I6Q5)
T1 construct: gene Ccel_2569; full-length, C-terminal His tag (pET28a), E. coli BL21(DE3), Ni-NTA and anion exchange
T1 sequence (B8I6Q5 1-580): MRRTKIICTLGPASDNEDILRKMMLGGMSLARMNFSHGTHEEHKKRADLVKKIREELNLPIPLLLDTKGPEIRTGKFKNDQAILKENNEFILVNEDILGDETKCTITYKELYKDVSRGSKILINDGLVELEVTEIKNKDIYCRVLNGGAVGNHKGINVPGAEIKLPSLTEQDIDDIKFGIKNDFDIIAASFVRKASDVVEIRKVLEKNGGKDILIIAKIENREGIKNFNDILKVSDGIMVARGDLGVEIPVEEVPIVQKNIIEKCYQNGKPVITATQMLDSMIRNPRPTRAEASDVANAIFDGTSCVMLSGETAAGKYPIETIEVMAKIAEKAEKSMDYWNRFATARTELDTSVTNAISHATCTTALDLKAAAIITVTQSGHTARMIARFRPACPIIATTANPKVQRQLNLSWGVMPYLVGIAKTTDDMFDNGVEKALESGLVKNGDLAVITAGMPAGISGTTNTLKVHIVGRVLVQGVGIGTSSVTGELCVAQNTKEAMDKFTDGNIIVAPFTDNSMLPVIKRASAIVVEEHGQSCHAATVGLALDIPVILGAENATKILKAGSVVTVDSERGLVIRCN
Experiment: activation of PK, HPLC-RI of pyruvate
Assay type: biochemical
Conditions: allosteric activator only with GDP as co-substrate; FBP 0.5, 3, 10 mM; 20 mM MgCl2, 30 mM KCl, pH 7.0, 37 °C

O=P(O)(O)OC[C@H]1OC(O)(COP(=O)(O)O)[C@@H](O)[C@@H]1O (stereo partly shown) [FBP]
activation of PK, HPLC-RI of pyruvate: FBP was found to act as a potent allosteric activator only when GDP is the co-substrate
